The values below come from ChEMBL document CHEMBL3880430, “Arginine derivatives with NP-1 antagonistic activity” (2012).

What is called IC50 is the concentration that inhibits the measured activity by half.

Calls of active or inactive are those of the source. The rule behind the calls is not given here.

One assay deals with Neuropilin-1 (Homo sapiens) (UniProt O14786). The assay can be described thus: Inhibition of neuropilin-1 in human ACHN cells assessed as decrease in cell migration at 10 to 100 uM after 4 hrs by trans-well assay. Format: cell-based.
Neuropilin-1 (Homo sapiens), sequence (O14786 whole entry): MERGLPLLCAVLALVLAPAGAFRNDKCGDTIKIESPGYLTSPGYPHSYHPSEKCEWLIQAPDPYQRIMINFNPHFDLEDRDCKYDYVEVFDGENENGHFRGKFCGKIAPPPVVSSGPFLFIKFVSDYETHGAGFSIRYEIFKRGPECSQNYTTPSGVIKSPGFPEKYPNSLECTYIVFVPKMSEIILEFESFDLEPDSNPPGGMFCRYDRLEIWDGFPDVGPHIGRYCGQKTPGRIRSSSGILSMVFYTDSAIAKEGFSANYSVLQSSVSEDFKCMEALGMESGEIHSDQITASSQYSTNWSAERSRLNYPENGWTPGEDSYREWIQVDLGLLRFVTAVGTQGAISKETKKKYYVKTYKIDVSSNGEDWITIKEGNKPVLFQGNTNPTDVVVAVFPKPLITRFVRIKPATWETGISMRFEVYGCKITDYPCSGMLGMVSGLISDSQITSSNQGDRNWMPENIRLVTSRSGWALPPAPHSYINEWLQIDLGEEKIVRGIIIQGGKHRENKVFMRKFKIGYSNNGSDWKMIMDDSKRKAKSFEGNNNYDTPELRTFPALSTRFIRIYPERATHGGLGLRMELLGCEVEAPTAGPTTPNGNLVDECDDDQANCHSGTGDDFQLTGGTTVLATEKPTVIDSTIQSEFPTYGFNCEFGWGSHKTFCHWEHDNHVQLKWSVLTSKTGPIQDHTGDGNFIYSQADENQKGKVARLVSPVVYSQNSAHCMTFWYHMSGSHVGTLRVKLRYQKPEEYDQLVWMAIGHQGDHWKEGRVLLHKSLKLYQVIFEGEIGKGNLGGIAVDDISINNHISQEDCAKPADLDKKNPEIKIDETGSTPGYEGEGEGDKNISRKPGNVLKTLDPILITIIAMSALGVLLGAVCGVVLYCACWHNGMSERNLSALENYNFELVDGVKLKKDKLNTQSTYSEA
Conditions: not given
As to `N=C(N)NCCC[C@H](NC(=O)c1sccc1NS(=O)(=O)c1ccc(N)cc1)C(=O)O`, the inhibition result was “Active”.

Tested on in another assay: not listed separately
The assay can be described thus: Cytotoxicity in human A549 cells assessed as decrease in cell viability after 44 hrs by XTT assay. The format is functional, cell-based. To be noted: A549, 44 h. Background: Tetrazolium dyes change colour on reduction, which living cells bring about.
With `Cc1ccc2nsnc2c1S(=O)(=O)Nc1ccsc1C(=O)N[C@@H](CCCNC(=N)N)C(=O)O`, the IC50 is below 20 µM.

Regarding `N=C(N)NCCC[C@H](NC(=O)c1sccc1NS(=O)(=O)c1cccc(CCCN)c1)C(=O)O`, the half-maximal inhibitory concentration (IC50) was below 20 µM.

With `CC(=O)Nc1ccc(S(=O)(=O)Nc2ccsc2C(=O)N[C@@H](CCCNC(=N)N)C(=O)O)cc1`, the IC50 was below 20 µM.

Take `N=C(N)NCCC[C@H](NC(=O)c1sccc1NS(=O)(=O)c1cccc(CCc2cccnc2)c1)C(=O)O`: the IC50 is below 20 µM.

As for `Cc1nn(C)c(Cl)c1CNc1cccc(S(=O)(=O)Nc2ccsc2C(=O)N[C@@H](CCCNC(=N)N)C(=O)O)c1`, the half-inhibitory concentration (IC50) was below 20 µM.

Take `N=C(N)NCCC[C@H](NC(=O)c1sccc1NS(=O)(=O)c1cccc(NCc2ccccn2)c1)C(=O)O`: the half-inhibitory concentration (IC50) is below 20 µM.

As for `N=C(N)NC(=O)CC[C@H](NC(=O)c1sccc1NS(=O)(=O)c1ccccc1[N+](=O)[O-])C(=O)O`, the IC50 is below 20 µM.

As to `N=C(N)NCCC[C@H](NC(=O)c1sccc1NS(=O)(=O)c1cc2ccccc2o1)C(=O)O`, the half-inhibitory concentration (IC50) was below 20 µM.

For `N=C(N)NCCC[C@H](NC(=O)c1sccc1NS(=O)(=O)c1ccc(N)cc1)C(=O)O`, the concentration for half-maximal inhibition (IC50) is below 20 µM.

Take `CN1CCOc2cc(-c3cc4c(c(S(=O)(=O)Nc5ccsc5C(=O)N[C@@H](CCCNC(=N)N)C(=O)O)c3)OCC4)cnc21`: the IC50 was below 20 µM.

Take `Cc1cc(CNc2cccc(S(=O)(=O)Nc3ccsc3C(=O)N[C@@H](CCCNC(=N)N)C(=O)O)c2)n(C)n1`: the IC50 was below 20 µM.

Take `Cc1noc(C)c1-c1cc2c(c(S(=O)(=O)Nc3ccsc3C(=O)N[C@@H](CCCNC(=N)N)C(=O)O)c1)OCC2`: the IC50 is below 20 µM.

As for `Cc1nc(CNc2cccc(S(=O)(=O)Nc3ccsc3C(=O)N[C@@H](CCCNC(=N)N)C(=O)O)c2)c(C)o1`, the half-inhibitory concentration (IC50) is below 20 µM.

On to `N=C(N)NCCC[C@H](NC(=O)c1sccc1NS(=O)(=O)c1cc2ccccc2s1)C(=O)O`, for which the IC50 is below 20 µM.

As for `N=C(N)NCCC[C@H](NC(=O)c1sccc1NS(=O)(=O)c1cccc(N)c1)C(=O)O`, the half-maximal inhibitory concentration (IC50) was below 20 µM.

As to `N=C(N)NCCC[C@H](NC(=O)c1sccc1NS(=O)(=O)c1cccc(C#CCN)c1)C(=O)O`, the IC50 is below 20 µM.

In the case of `N=C(N)NCCC[C@H](NC(=O)c1sccc1NS(=O)(=O)c1ccccc1[N+](=O)[O-])C(=O)O`, the IC50 is below 20 µM.

As to `N=C(N)NCCC[C@H](NC(=O)c1sccc1NS(=O)(=O)c1ccccc1N)C(=O)O`, the IC50 is below 20 µM.

With `Cc1noc(C)c1-c1cccc(S(=O)(=O)Nc2ccsc2C(=O)N[C@@H](CCCNC(=N)N)C(=O)O)c1`, the IC50 is below 20 µM.

The target in the next assay is Neuropilin-1 (Homo sapiens) (UniProt O14786). Briefly: Inhibition of neuropilin-1 in human A549 cells assessed as decrease in cell migration at 10 to 100 uM after 4 hrs by trans-well assay. The format is cell-based.
Conditions: not given
Turning to `N=C(N)NCCC[C@H](NC(=O)c1sccc1NS(=O)(=O)c1ccc(N)cc1)C(=O)O`, the inhibition entry is “Active”.

The target is the same in another assay. The assay can be described thus: Inhibition of neuropilin-1 in human DU145 cells assessed as decrease in cell adhesion to extracellular matrix proteins at 10 to 100 uM after 1.5 hrs by calcein-AM dye based fluorescence assay. To be noted: DU-145.
Consider `N=C(N)NCCC[C@H](NC(=O)c1sccc1NS(=O)(=O)c1ccc(N)cc1)C(=O)O`, for which the inhibition entry was “Active”.
